# In paper PMC12210654, “Palazestrant, a novel oral Complete Estrogen Receptor Antagonist (CERAN) and Selective Estrogen Receptor Degrader (SERD), in patients with ER+/HER2− advanced or metastatic breast cancer: phase 1/2 study results” (Breast Cancer Research : BCR, 2025):
# Where “and” joins values, the source holds several entries; their conditions need not be identical. Equal values may be shown once. Entries after “also recorded” stand apart in the source; their conditions may differ.
# Test: Safety: adverse events (NCI CTCAE v5.0), electrocardiograms
# Type: in vivo, human
# Description: Safety assessments included the monitoring of AEs, clinical laboratory parameters, electrocardiograms, and vital signs. AE severity was graded according to the National Cancer Institute Common Terminology Criteria for Adverse Events (version 5.0).
# All DLT analyses (phase 1a) were performed in patients enrolled in the study during cycle 1 and who either received 75% of the planned palazestrant doses or experienced a DLT during cycle 1. All PK analyses were performed in patients who received at least 1 dose of palazestrant and had adequate postbaseline PK samples for characterization of PK parameters. All safety analyses were performed and PFS assessed in patients who received at least 1 dose of palazestrant. Clinical response (CR or PR) was assessed in patients who received at least 1 cycle of palazestrant, had measurable disease at baseline, and had at least 1 postbaseline tumor assessment. CBR was assessed in patients who received at least 1 cycle of palazestrant, had at least 1 postbaseline tumor assessment, and started their first dose at least 24 weeks before data cutoff. Patients who discontinued study treatment without radiographic progression within 24 weeks from the first dose were not included in the CBR analysis. PK parameters were estimated using conventional noncompartmental methods. For CBR, estimates were accompanied by 2-sided 95% confidence intervals (95% CIs). For PFS, Kaplan–Meier analyses were used to determine medians, event-free rates, and 95% CIs. For all other outcomes, categorical data were analyzed using frequencies and percentages, and continuous data were analyzed using means (standard deviation) or medians (range), as appropriate.
# [1] = any patients treated with palazestrant
smiles,measurement,setting,value
"CCCN1CC(Oc2ccc([C@@H]3c4[nH]c5ccccc5c4C[C@@H](C)N3CC(C)(C)F)cc2)C1 [palazestrant, Palazestrant]","TRAE nausea, any grade",120 mg/day (n = 86),54.7%
same,"TRAE neutropenia, any grade",120 mg/day (n = 86),20.9%
same,"TRAE vomiting, any grade",120 mg/day (n = 86),24.4%
same,grade 3 TRAE fatigue,120 mg/day (n = 86),2.3%
same,grade 3 TRAE nausea,120 mg/day (n = 86),3.5%
same,grade 3 TRAE neutropenia,120 mg/day (n = 86),3.5%
same,grade 3 TRAE vomiting,120 mg/day (n = 86),2.3%
same,grade 4 TEAE acute respiratory failure,120 mg/day (n = 86),1 patients
same,grade 4 TEAE neutropenia,120 mg/day (n = 86),6 patients
same,grade ≥ 3 TEAE neutropenia,120 mg/day (n = 86),10.5%
same,"patients with 3 grade 4 events (pulmonary embolism, diverticulitis, acute left ventricular failure)",120 mg/day (n = 86),1 patient
same,patients with Grade 3 TEAEs,120 mg/day (n = 86),24.4%
same,patients with Grade 3 treatment-related events,120 mg/day (n = 86),11.6%
same,patients with grade 4 TEAEs,120 mg/day (n = 86),9.3%
same,patients with ≥ 1 TEAE of any grade,120 mg/day (n = 86),95.3%
same,Treatment-related grade 4 neutropenia,"120 mg/day (n = 86), 5 patients",5.8% and 6%
same,time of grade 4 neutropenia events after initiation of palazestrant,"120 mg/day, approximately",6-8 weeks
same,treatment discontinuation due to AEs,60 or 120 mg/day (n = 116),6.0%
same,severity of most TEAEs,RP2D of 120 mg/day,grade 1–2; also recorded: grade 1 or 2
same,severity of the majority of TRAEs,RP2D of 120 mg/day,grade 1 or 2
same,TEAE bradycardia,"RP2D, 120 mg/day",9%
same,TEAE photopsia,"RP2D, 120 mg/day",5%
same,grade of all bradycardia and photopsia events,"RP2D, 120 mg/day",grade 1
same,treatment-related diarrhea of any grade,"RP2D, 120 mg/day",13%
same,"treatment-related diarrhea, grade ≥ 3","RP2D, 120 mg/day",no grade ≥ 3 events
same,severity of the majority of TEAEs,all dose-escalation cohorts (30 to 300 mg),grade 1 or 2
same,QTcF values,[1],≤ 500 ms
same,changes in QTcF,[1],no clinically significant changes
same,discontinuations due to AEs assessed as related to palazestrant,of seven patients who discontinued due to AEs,5 patients
same,neutropenia resolved upon treatment discontinuation,"of the 5 patients with treatment-related grade 4 neutropenia, 120 mg/day",2 patients
same,grade 4 neutropenia resolved following discontinuation of palazestrant,of the 6 patients with grade 4 neutropenia,3 patients
same,"TEAE Constipation, Toxicity Grade All","phase 1a, 30 mg (N=5)",1 (20.0)
same,"TEAE Constipation, Toxicity Grade G3","phase 1a, 30 mg (N=5)",0
same,"TEAE Constipation, Toxicity Grade G4","phase 1a, 30 mg (N=5)",0
same,"TEAE Decreased appetite, Toxicity Grade All","phase 1a, 30 mg (N=5)",1 (20.0)
same,"TEAE Decreased appetite, Toxicity Grade G3","phase 1a, 30 mg (N=5)",0
same,"TEAE Decreased appetite, Toxicity Grade G4","phase 1a, 30 mg (N=5)",0
same,"TEAE Diarrhea, Toxicity Grade All","phase 1a, 30 mg (N=5)",2 (40.0)
same,"TEAE Diarrhea, Toxicity Grade G3","phase 1a, 30 mg (N=5)",0
same,"TEAE Diarrhea, Toxicity Grade G4","phase 1a, 30 mg (N=5)",0
same,"TEAE Fatigue, Toxicity Grade All","phase 1a, 30 mg (N=5)",2 (40.0)
same,"TEAE Fatigue, Toxicity Grade G3","phase 1a, 30 mg (N=5)",0
same,"TEAE Fatigue, Toxicity Grade G4","phase 1a, 30 mg (N=5)",0
same,"TEAE Headache, Toxicity Grade All","phase 1a, 30 mg (N=5)",1 (20.0)
same,"TEAE Headache, Toxicity Grade G3","phase 1a, 30 mg (N=5)",0
same,"TEAE Headache, Toxicity Grade G4","phase 1a, 30 mg (N=5)",0
same,"TEAE Maculopapular rash, Toxicity Grade All","phase 1a, 30 mg (N=5)",1 (20.0)
same,"TEAE Maculopapular rash, Toxicity Grade G3","phase 1a, 30 mg (N=5)",0
same,"TEAE Maculopapular rash, Toxicity Grade G4","phase 1a, 30 mg (N=5)",0
same,"TEAE Nausea, Toxicity Grade All","phase 1a, 30 mg (N=5)",2 (40.0)
same,"TEAE Nausea, Toxicity Grade G3","phase 1a, 30 mg (N=5)",0
same,"TEAE Nausea, Toxicity Grade G4","phase 1a, 30 mg (N=5)",0
same,"TEAE Neutropenia, Toxicity Grade G3","phase 1a, 30 mg (N=5)",0
same,"TEAE Neutropenia, Toxicity Grade G4","phase 1a, 30 mg (N=5)",1 (20.0)
same,"TEAE Vomiting, Toxicity Grade All","phase 1a, 30 mg (N=5)",1 (20.0)
same,"TEAE Vomiting, Toxicity Grade G3","phase 1a, 30 mg (N=5)",0
same,"TEAE Vomiting, Toxicity Grade G4","phase 1a, 30 mg (N=5)",0
same,"TEAE Neutropenia, Toxicity Grade All","phase 1a, 30 mg (N=5), includes neutropenia and neutrophil count decreased",1 (20.0)
same,"TEAE Constipation, Toxicity Grade All","phase 1a, 60 mg (N=6)",1 (16.7)
same,"TEAE Constipation, Toxicity Grade G3","phase 1a, 60 mg (N=6)",0
same,"TEAE Constipation, Toxicity Grade G4","phase 1a, 60 mg (N=6)",0
same,"TEAE Decreased appetite, Toxicity Grade All","phase 1a, 60 mg (N=6)",0
same,"TEAE Decreased appetite, Toxicity Grade G3","phase 1a, 60 mg (N=6)",0
same,"TEAE Decreased appetite, Toxicity Grade G4","phase 1a, 60 mg (N=6)",0
same,"TEAE Diarrhea, Toxicity Grade All","phase 1a, 60 mg (N=6)",2 (33.3)
same,"TEAE Diarrhea, Toxicity Grade G3","phase 1a, 60 mg (N=6)",0
same,"TEAE Diarrhea, Toxicity Grade G4","phase 1a, 60 mg (N=6)",0
same,"TEAE Fatigue, Toxicity Grade All","phase 1a, 60 mg (N=6)",3 (50.0)
same,"TEAE Fatigue, Toxicity Grade G3","phase 1a, 60 mg (N=6)",0
same,"TEAE Fatigue, Toxicity Grade G4","phase 1a, 60 mg (N=6)",0
same,"TEAE Headache, Toxicity Grade All","phase 1a, 60 mg (N=6)",1 (16.7)
same,"TEAE Headache, Toxicity Grade G3","phase 1a, 60 mg (N=6)",0
same,"TEAE Headache, Toxicity Grade G4","phase 1a, 60 mg (N=6)",0
same,"TEAE Maculopapular rash, Toxicity Grade All","phase 1a, 60 mg (N=6)",1 (16.7)
same,"TEAE Maculopapular rash, Toxicity Grade G3","phase 1a, 60 mg (N=6)",0
same,"TEAE Maculopapular rash, Toxicity Grade G4","phase 1a, 60 mg (N=6)",0
same,"TEAE Nausea, Toxicity Grade All","phase 1a, 60 mg (N=6)",2 (33.3)
same,"TEAE Nausea, Toxicity Grade G3","phase 1a, 60 mg (N=6)",0
same,"TEAE Nausea, Toxicity Grade G4","phase 1a, 60 mg (N=6)",0
same,"TEAE Neutropenia, Toxicity Grade G3","phase 1a, 60 mg (N=6)",0
same,"TEAE Neutropenia, Toxicity Grade G4","phase 1a, 60 mg (N=6)",0
same,"TEAE Vomiting, Toxicity Grade All","phase 1a, 60 mg (N=6)",1 (16.7)
